Numbered stars: 1 amine (or outer) side, 2 acyl side, 3 side chain; on linkers, the order of the positions; unused ones are H or OH. Bridge positions count the residues as written; N and C are the ends. Square brackets hold non-standard residues; d marks the D form. Peptide text beside a SMILES is read from it. * marks the point of attachment. hPhe(3,5-F2-4-CF3) = N[C@@H](CCc1cc(F)c(C(F)(F)F)c(F)c1)C(=O)O; hPhe(3-Cl-4-CF3) = N[C@@H](CCc1ccc(C(F)(F)F)c(Cl)c1)C(=O)O; hPhe(3-F,4-CF3) = N[C@@H](CCc1ccc(C(F)(F)F)c(F)c1)C(=O)O; NEtPhe(4-CF3) = CCN[C@@H](Cc1ccc(C(F)(F)F)cc1)C(=O)O; 3Oxa8azabicyclo(3.2.1)octane = C1CC2COCC1N2*; NEtPhe(4-Me) = CCN[C@@H](Cc1ccc(C)cc1)C(=O)O; NMePhe(4-Cl) = CN[C@@H](Cc1ccc(Cl)cc1)C(=O)O; NMePhe(4-Me) = CN[C@@H](Cc1ccc(C)cc1)C(=O)O; NMePhe(4-I) = CN[C@@H](Cc1ccc(I)cc1)C(=O)O; NMedβ3hAla = C[C@H](CC(=O)[*:2])N(C)[*:1]; NMeAla(cPent) = CN[C@@H](CC1CCCC1)C(=O)O; NMeGly(cPent) = CN[C@H](C(=O)O)C1CCCC1; Pro(4,4-F2) = O=C(O)[C@@H]1CC(F)(F)CN1; NMeCha = CN[C@@H](CC1CCCCC1)C(=O)O; NMeChg = CN[C@H](C(=O)O)C1CCCCC1; NMeI = CC[C@H](C)[C@H](NC)C(=O)O; NMeD = CN[C@@H](CC(=O)O)C(=O)O; NMeHpra = C#CCC[C@H](NC)C(=O)O; NMeL = CN[C@@H](CC(C)C)C(=O)O; NMeV = CN[C@H](C(=O)O)C(C)C; d(β3hA) = C[C@@H](N)CC(=O)O; NMeS = CN[C@@H](CO)C(=O)O; NMeA = CN[C@@H](C)C(=O)O; Piperidide = C1CCN(*)CC1; Pyrrolidide = C1CCN(*)C1; dNMeA = CN[C@H](C)C(=O)O; Ac5c = NC1(C(=O)O)CCCC1; Aze = O=C(O)[C@@H]1CCN1; Ac4c = NC1(C(=O)O)CCC1; Sar = CNCC(=O)O; Propyl = CCC*
target: protein-protein interaction between Kras and SOS1 (biotin-tagged human Kras loaded with GDP, His-tagged human SOS1) (Homo sapiens (Human), UniProt P01116, G12D); assay: Protein-protein interaction inhibition between Kras and SOS1 (KrasG12D-SOS PPI) using AlphaScreen; type: biochemical; settings: AlphaScreen; biotin-tagged human Kras loaded with GDP, His-tagged human SOS1; read-out: KRAS G12D-SOS PPI IC50;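 also: kras produced in E. coli, Ni-coupled donor beads and streptavidin acceptor beads, excitation 680 nm with emission detected at 520–620 nm via singlet oxygen transfer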

| Compound | IC50 [nM] |
| --- | --- |
| CC[C@H](C)[C@@H]1NC(=O)[C@H](CC(C)C)N(C)C(=O)C[C@@H](C(=O)N2CCCCC2)N(C)C(=O)[C@H]([C@@H](C)CC)N(C)C(=O)C2(CCCC2)NC(=O)[C@@H]2CCCN2C(=O)[C@H](CCc2ccc(C(F)(F)F)c(Cl)c2)NC(=O)CN(C)C(=O)[C@H](Cc2ccc(Cl)cc2)N(C)C(=O)[C@@H]2CCN2C(=O)[C@H](C)N(C)C1=O [Compound 253] ([NMeL]I[NMeA][Aze][NMePhe(4-Cl)][Sar][hPhe(3-Cl-4-CF3)]P[Ac5c][NMeI][NMeD]-Piperidide; lactam N-11) | 0.99 |
| CC[C@H](C)[C@@H]1NC(=O)[C@H](CC(C)C)N(C)C(=O)C[C@@H](C(=O)N2CCCC2)N(C)C(=O)[C@H]([C@@H](C)CC)N(C)C(=O)C2(CCCC2)NC(=O)[C@@H]2CCCN2C(=O)[C@H](CCc2ccc(C(F)(F)F)c(Cl)c2)NC(=O)CN(C)C(=O)[C@H](Cc2ccc(C)cc2)N(CC)C(=O)[C@@H]2CCN2C(=O)[C@H](C)N(C)C1=O [Compound 1325] ([NMeL]I[NMeA][Aze][NEtPhe(4-Me)][Sar][hPhe(3-Cl-4-CF3)]P[Ac5c][NMeI][NMeD]-Pyrrolidide; lactam N-11) | 0.96 |
| CC[C@H](C)[C@@H]1NC(=O)[C@H](CC(C)C)N(C)C(=O)C[C@@H](C(=O)N2C3CCC2COC3)N(C)C(=O)[C@H]([C@@H](C)CC)N(C)C(=O)C2(CCCC2)NC(=O)[C@@H]2CCCN2C(=O)[C@H](CCc2ccc(C(F)(F)F)c(Cl)c2)NC(=O)CN(C)C(=O)[C@H](C2CCCC2)N(C)C(=O)[C@@H]2CCN2C(=O)[C@H](C)N(C)C1=O [Compound 1002] ([NMeL]I[NMeA][Aze][NMeGly(cPent)][Sar][hPhe(3-Cl-4-CF3)]P[Ac5c][NMeI][NMeD]-{3Oxa8azabicyclo(3.2.1)octane}; lactam N-11) | 2.1 |
| CC[C@H](C)[C@@H]1NC(=O)[C@H](CC(C)C)N(C)C(=O)C[C@@H](C(=O)N2CCCCC2)N(C)C(=O)[C@H](C2CCCC2)N(C)C(=O)C2(CCCC2)NC(=O)[C@@H]2CCCN2C(=O)[C@H](CCc2ccc(C(F)(F)F)c(F)c2)NC(=O)CN(C)C(=O)[C@H](Cc2ccc(C)cc2)N(C)C(=O)[C@@H]2CCN2C(=O)[C@H](C)N(C)C1=O [Compound 1008] ([NMeL]I[NMeA][Aze][NMePhe(4-Me)][Sar][hPhe(3-F,4-CF3)]P[Ac5c][NMeGly(cPent)][NMeD]-Piperidide; lactam N-11) | 0.76 |
| CCCOC[C@H]1C(=O)N(C)CC(=O)N[C@@H](CCc2ccc(C(F)(F)F)c(F)c2)C(=O)N2CCC[C@H]2C(=O)NC2(CCCC2)C(=O)N(C)[C@@H]([C@@H](C)CC)C(=O)N(C)[C@H](C(=O)N2C3CCC2COC3)CC(=O)N(C)[C@@H](CC(C)C)C(=O)N[C@@H]([C@@H](C)CC)C(=O)N(C)[C@@H](C)C(=O)N2CC[C@H]2C(=O)N1C [Compound 408] ([NMeL]I[NMeA][Aze][NMeS](Propyl)[Sar][hPhe(3-F,4-CF3)]P[Ac5c][NMeI][NMeD]-{3Oxa8azabicyclo(3.2.1)octane}; lactam N-11) | 11 |
| C#CCC[C@H]1C(=O)N[C@@H]([C@@H](C)CC)C(=O)N(C)[C@@H](C)C(=O)N2CC[C@H]2C(=O)N(C)[C@@H](Cc2ccc(I)cc2)C(=O)N(C)CC(=O)N[C@@H](CCc2ccc(C(F)(F)F)c(Cl)c2)C(=O)N2CCC[C@H]2C(=O)NC2(CCCC2)C(=O)N(C)[C@@H](C2CCCCC2)C(=O)N[C@H](C)CC(=O)N1C [Compound 971] (cyclo([Ac5c][NMeChg][d(β3hA)][NMeHpra]I[NMeA][Aze][NMePhe(4-I)][Sar][hPhe(3-Cl-4-CF3)]P)) | 16 |
| CC[C@H](C)[C@@H]1NC(=O)[C@H](C)N(C)C(=O)C[C@@H](C)NC(=O)[C@H](C(C)C)N(C)C(=O)C2(CCCC2)NC(=O)[C@@H]2CCCN2C(=O)[C@H](CCc2ccc(C(F)(F)F)c(Cl)c2)NC(=O)[C@@H](C)N(C)C(=O)[C@H](CC2CCCCC2)N(C)C(=O)[C@@H]2CCN2C(=O)[C@H](CC(C)C)N(C)C1=O [Compound 2018] (cyclo([Ac5c][NMeV][d(β3hA)][NMeA]I[NMeL][Aze][NMeCha][dNMeA][hPhe(3-Cl-4-CF3)]P)) | 320 |
| CCCOC[C@H]1C(=O)N(C)CC(=O)N[C@@H](CCc2ccc(C(F)(F)F)c(Cl)c2)C(=O)N2CCC[C@H]2C(=O)NC2(CCCC2)C(=O)N(C)[C@@H](C2CCCC2)C(=O)N(C)[C@H](C(=O)N2C3CCC2COC3)CC(=O)N(C)[C@@H](CC2CCCC2)C(=O)N[C@@H]([C@@H](C)CC)C(=O)N[C@@H](C)C(=O)N2CC[C@H]2C(=O)N1C [Compound 1359] ([NMeAla(cPent)]IA[Aze][NMeS](Propyl)[Sar][hPhe(3-Cl-4-CF3)]P[Ac5c][NMeGly(cPent)][NMeD]-{3Oxa8azabicyclo(3.2.1)octane}; lactam N-11) | 6.2 |
| CC[C@H](C)[C@@H]1NC(=O)[C@H](C)N(C)C(=O)C[C@@H](C)NC(=O)[C@H](C2CCCC2)N(C)C(=O)C2(CCCC2)NC(=O)[C@@H]2CCCN2C(=O)[C@H](CCc2ccc(C(F)(F)F)c(Cl)c2)NC(=O)[C@@H](C)N(C)C(=O)[C@H](C(C)C)N(C)C(=O)[C@@H]2CCN2C(=O)[C@H](C)N(C)C1=O [Compound 1066] (cyclo([Ac5c][NMeGly(cPent)][d(β3hA)][NMeA]I[NMeA][Aze][NMeV][dNMeA][hPhe(3-Cl-4-CF3)]P)) | 24 |
| CCCOC[C@H]1C(=O)N(C)CC(=O)N[C@@H](CCc2ccc(C(F)(F)F)c(Cl)c2)C(=O)N2CCC[C@H]2C(=O)NC2(CCCC2)C(=O)N(C)[C@@H](C2CCCC2)C(=O)N(C)[C@H](C(=O)N2C3CCC2COC3)CC(=O)N(C)[C@@H](CC2CCCC2)C(=O)N[C@@H]([C@@H](C)CC)C(=O)N(C)[C@@H](C)C(=O)N2CC[C@H]2C(=O)N1C [Compound 1251] ([NMeAla(cPent)]I[NMeA][Aze][NMeS](Propyl)[Sar][hPhe(3-Cl-4-CF3)]P[Ac5c][NMeGly(cPent)][NMeD]-{3Oxa8azabicyclo(3.2.1)octane}; lactam N-11) | 2.6 |
| CC[C@H](C)[C@@H]1NC(=O)[C@H](CC(C)C)N(C)C(=O)C[C@@H](C)N(C)C(=O)[C@H](C(C)C)N(C)C(=O)C2(CCCC2)NC(=O)[C@@H]2CCCN2C(=O)[C@H](CCc2ccc(C(F)(F)F)c(Cl)c2)NC(=O)CN(C)C(=O)[C@H](CC2CCCCC2)N(C)C(=O)[C@@H]2CCN2C(=O)CN(C)C1=O [Compound 1648] (cyclo([Ac5c][NMeV][NMedβ3hAla][NMeL]I[Sar][Aze][NMeCha][Sar][hPhe(3-Cl-4-CF3)]P)) | 10 |
| CC[C@H](C)[C@@H]1NC(=O)[C@H](CC(C)C)N(C)C(=O)C[C@@H](C)N(C)C(=O)[C@H](C2CCCCC2)N(C)C(=O)C2(CCC2)NC(=O)[C@@H]2CC(F)(F)CN2C(=O)[C@H](CCc2cc(F)c(C(F)(F)F)c(F)c2)NC(=O)CN(C)C(=O)[C@H](Cc2ccc(C(F)(F)F)cc2)N(CC)C(=O)[C@@H]2CCN2C(=O)[C@H](C)N(C)C1=O [Compound 377] (cyclo([Ac4c][NMeChg][NMedβ3hAla][NMeL]I[NMeA][Aze][NEtPhe(4-CF3)][Sar][hPhe(3,5-F2-4-CF3)][Pro(4,4-F2)])) | 24 |
| CCCOC[C@H]1C(=O)N(C)CC(=O)N[C@@H](CCc2ccc(C(F)(F)F)c(F)c2)C(=O)N2CCC[C@H]2C(=O)NC2(CCCC2)C(=O)N(C)[C@@H](C2CCCC2)C(=O)N(C)[C@H](C)CC(=O)N(C)[C@@H](CC(C)C)C(=O)N[C@@H]([C@@H](C)CC)C(=O)N(C)[C@@H](C)C(=O)N2CC[C@H]2C(=O)N1C [Compound 776] (cyclo([Ac5c][NMeGly(cPent)][NMedβ3hAla][NMeL]I[NMeA][Aze][NMeS](Propyl)[Sar][hPhe(3-F,4-CF3)]P)) | 7.3 |

system: Human pancreatic cancer cell line AsPC-1 (G12D mutation Kras); assay: AsPC-1 cell growth inhibition (AsPC-1 CGI); type: cell-based; settings: read-out: AsPC-1 cell growth inhibition, 50% growth inhibitory concentration (IC50 value); 96 hours, CellTiter-Glo, values classified in ranges
Method: Test compounds were serially dilated with dimethyl sulfoxide, and 200 nL was then dispensed to a U-bottom 96-well plate using Labcyte Echo. […] The cell suspension was dispensed to a. plate containing a test compound at 100 μL per well and incubated at 37° C. in a 5% carbon dioxide gas incubator. 96 hours later, 80 μL of CellTiter-Glo (Promega) was added to each well and fluorescence was measured.

| Compound | IC50 [nM] |
| --- | --- |
| CC[C@H](C)[C@@H]1NC(=O)[C@H](CC(C)C)N(C)C(=O)C[C@@H](C(=O)N2CCCCC2)N(C)C(=O)[C@H]([C@@H](C)CC)N(C)C(=O)C2(CCCC2)NC(=O)[C@@H]2CCCN2C(=O)[C@H](CCc2ccc(C(F)(F)F)c(Cl)c2)NC(=O)CN(C)C(=O)[C@H](Cc2ccc(Cl)cc2)N(C)C(=O)[C@@H]2CCN2C(=O)[C@H](C)N(C)C1=O [Compound 253] ([NMeL]I[NMeA][Aze][NMePhe(4-Cl)][Sar][hPhe(3-Cl-4-CF3)]P[Ac5c][NMeI][NMeD]-Piperidide; lactam N-11) | ≤ 20 |
| CC[C@H](C)[C@@H]1NC(=O)[C@H](CC(C)C)N(C)C(=O)C[C@@H](C(=O)N2CCCC2)N(C)C(=O)[C@H]([C@@H](C)CC)N(C)C(=O)C2(CCCC2)NC(=O)[C@@H]2CCCN2C(=O)[C@H](CCc2ccc(C(F)(F)F)c(Cl)c2)NC(=O)CN(C)C(=O)[C@H](Cc2ccc(C)cc2)N(CC)C(=O)[C@@H]2CCN2C(=O)[C@H](C)N(C)C1=O [Compound 1325] ([NMeL]I[NMeA][Aze][NEtPhe(4-Me)][Sar][hPhe(3-Cl-4-CF3)]P[Ac5c][NMeI][NMeD]-Pyrrolidide; lactam N-11) | ≤ 20 |

From patent US20240148821A1, “PHARMACEUTICAL USE OF CYCLIC PEPTIDE COMPOUND” (CHUGAI SEIYAKU KABUSHIKI KAISHA, priority 2021, published 2024)
